Active and inactive are the calls of the source. The calls are words filed in the database; no cut-off is given here.
Legend:
[1] = molecular target: T1, Serine palmitoyltransferase (Sphingomonas paucimobilis) (UniProt Q93UV0); assay: Reversible inhibition of Sphingomonas paucimobilis recombinant SPT expressed in Escherichia coli BL21(DE3) assessed as restoration of enzyme activity at 5 mM after 30 mins by dialysis technique in presence of PLP relative to control; set-up: scale not given: the % may be the effect or the level left
T1 sequence (whole entry): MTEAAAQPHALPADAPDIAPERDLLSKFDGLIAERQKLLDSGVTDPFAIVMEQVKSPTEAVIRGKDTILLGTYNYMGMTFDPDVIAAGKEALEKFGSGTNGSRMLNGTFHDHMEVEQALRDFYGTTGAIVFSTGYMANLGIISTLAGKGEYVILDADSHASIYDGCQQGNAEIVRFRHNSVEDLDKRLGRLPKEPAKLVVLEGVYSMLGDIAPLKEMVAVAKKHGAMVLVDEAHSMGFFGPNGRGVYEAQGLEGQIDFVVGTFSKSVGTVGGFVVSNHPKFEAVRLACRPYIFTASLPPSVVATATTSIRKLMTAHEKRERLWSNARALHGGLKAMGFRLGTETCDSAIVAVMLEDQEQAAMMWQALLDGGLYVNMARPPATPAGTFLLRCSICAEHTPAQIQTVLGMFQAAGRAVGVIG

[2] = molecular target: T1, Serine palmitoyltransferase (Sphingomonas paucimobilis); assay: Inhibition of Sphingomonas paucimobilis recombinant SPT expressed in Escherichia coli BL21(DE3) assessed as remaining activity at 5 mM after 30 mins by dialysis technique relative to control
[3] = molecular target: T1, Serine palmitoyltransferase (Sphingomonas paucimobilis); assay: Binding affinity to Sphingomonas paucimobilis recombinant SPT expressed in Escherichia coli BL21(DE3) at 10 mM after 30 mins by UV-vis spectroscopic analysis
[4] = molecular target: T1, Serine palmitoyltransferase (Sphingomonas paucimobilis); assay: Inhibition of Sphingomonas paucimobilis recombinant SPT expressed in Escherichia coli BL21(DE3) by dialysis technique in presence of PLP and potassium phosphate buffer
[5] = molecular target: T1, Serine palmitoyltransferase (Sphingomonas paucimobilis); assay: Binding affinity to Sphingomonas paucimobilis recombinant SPT expressed in Escherichia coli BL21(DE3) at 5 mM by ESI-FT-ICR mass spectrometric analysis
[6] = molecular target: T1, Serine palmitoyltransferase (Sphingomonas paucimobilis); assay: Inhibition of Sphingomonas paucimobilis recombinant SPT expressed in Escherichia coli BL21(DE3) by membrane filtration assay
[7] = molecular target: T1, Serine palmitoyltransferase (Sphingomonas paucimobilis); assay: Reversible inhibition of Sphingomonas paucimobilis recombinant SPT expressed in Escherichia coli BL21(DE3) at 1 mM after 1 to 60 mins by UV-vis spectroscopic analysis in presence of potassium phosphate buffer
[8] = molecular target: T1, Serine palmitoyltransferase (Sphingomonas paucimobilis); assay: Reversible inhibition of Sphingomonas paucimobilis recombinant SPT expressed in Escherichia coli BL21(DE3) at 1 mM after 1 to 60 mins by UV-vis spectroscopic analysis in presence of Tris-HCl buffer
[9] = molecular target: T1, Serine palmitoyltransferase (Sphingomonas paucimobilis); assay: Binding affinity to Sphingomonas paucimobilis recombinant SPT expressed in Escherichia coli BL21(DE3) at 10 mM by UV-vis spectroscopic analysis; conditions: TDE = time-dependent effect

Which results are given for `CC(C)(S)[C@@H](N)C(=O)O`?
Activity [1]: 57%; Activity [2]: 34%

How did the Activity [1] turn out when `CC(C)(S)[C@H](N)C(=O)O` was run?
The Activity was 80%.

And the Activity [3]?
Its Activity is “Active”.

And the inhibition [4]?
Its inhibition is “Active”.

What about the Activity [2] of the same compound?
Its Activity is 3%.

And the Activity [5]?
The Activity was “Active”.

And the inhibition [6]?
The inhibition was “Active”.

Which results are given for `N[C@H](CS)C(=O)O`?
Activity [1]: 76%; Activity [2]: 22%

With `N[C@@H](CS)C(=O)O` as the compound, how does the inhibition [7] read?
Its inhibition is “inactive”.

And the Activity [1]?
The Activity was 83%.

What about the inhibition [8] of the same compound?
Its inhibition is “Active”.

And the Activity [2]?
Its Activity is 24%.

What about the Activity [9] of the same compound?
Its Activity is “tde”.

Source: ChEMBL document CHEMBL3217671, “l-Penicillamine is a mechanism-based inhibitor of serine palmitoyltransferase by forming a pyridoxal-5-phosphate-thiazolidine adduct” (Medchemcomm, 2012)
